Measurements reported in paper PMC6572184, “New γ-Halo-δ-lactones and δ-Hydroxy-γ-lactones with Strong Cytotoxic Activity” (Molecules, 2019).
Where two headings read alike, the source gives them in different places.

Experiments:
[1] = tested on: L929 cell lines (mouse fibroblasts); test: MTT reduction cytotoxicity assay; type: cell-based; conditions: 24 h
Protocol: (§1) Cell cultures: The L929 mouse fibroblasts and human gastric adenocarcinoma cell line AGS were used for in vitro cytotoxicity assays. The cells were maintained under standard conditions (37 ^∘ C, 5% CO 2 ) in 25 cm^2 tissue culture flasks in RPMI-1640 medium supplemented with 10% fetal bovine serum (FBS) and antibiotics: 100 U/mL penicillin and 100 μ g/mL streptomycin. The cell suspension containing 10 ^8 cells in 1 mL, was obtained by treatment of confluent monolayers with 0.25% trypsin solution, washed and subcultured. Cell cultures were supplemented with medium to maintain them in log phase growth. The viability of the cells was assessed by exclusion of trypan blue dye.
(§2) Measurements of cellular metabolic activity and global growth inhibition: L929 cells were seeded into 96-well plates (2 × 10 ^5 cells/well) for 24 h, at 37 ^∘ C, 5% CO2 . Tested compounds 5a–c, 6a–c, 7a–c, 8a–c, 9b,c, 10b,c, 12a and 13a were diluted serially in RPMI-1640 medium in concentrations of 50, 20, 10, 5, 0.5 and 0.1 μ g/mL, added to the cells (100 μ L/well), and incubated under standard conditions for 24 h. The potential harmful effect of lactones on L929 and AGS cells was assessed by the ability of the cells to reduce 3-(4,5-dimethylthiazol-2-yl)-2,5-diphenyltetrazolium bromide (MTT) to formazan. The solution of MTT (5 mg/mL in PBS), was added to each well and the plates were incubated for 4h at 37 ^∘ C. Formazan crystals were dissolved with acidic isopropanol (0.1 M HCl in absolute isopropanol) and the plates were read in a plate reader (Victor 2) at 570 nm. The percentage of MTT reduction was calculated by comparing the absorbance of treated cells to that of untreated control cells. Results are expressed as the mean percentage of viable cells ± standard deviation (SD) of four independent experiments. Statistical significance was accepted at a p-value < 0.05.

[2] = tested on: Staphylococcus aureus ATCC 65389; test: Bactericidal activity, CFU counting method; type: cell-based; conditions: S. aureus ATCC 65389; 18 h at 37 °C; Control 21.36, Control with DMSO 20.85
Protocol: (§3) The bacterial cultures: Escherichia coli ATCC 8739 and Staphylococcus aureus ATCC 65389 were grown on Luria–Bertani Agar for 18 h at 37 ^∘ C. The strain suspension was prepared in 0.85% saline, with an optical density equivalent to a 0.5 McFarland standard. Next, the following mixtures were prepared: 180 μ L of sterile enriched broth (BTL), 10 μ L of the bacterial suspension and 10 μ L of the tested compound (range 0.1–50 μ g/mL) solubilized in DMSO. As a negative control, only DMSO was added. As a sterility control, 180 μ L of BTL and 20 μ L saline were used. The microtiter plate was incubated at 37 ^∘ C for 18 h. The colony forming unit (CFU) method was used to evaluate the microbial population. The experiment was repeated three times. Gentamicin was used as the reference antibiotic.

[3] = tested on: Escherichia coli ATCC 8739; test: Bactericidal activity, CFU counting method; type: cell-based; conditions: E. coli ATCC 8739; for Number of CFU/mL (× 10^7): 18 h at 37 °C, Control 9.47, Control with DMSO 9.30; for less CFU/mL (reduction of the number of CFU/mL): versus control
Protocol: as §3

[4] = tested on: AGS cell lines (human gastric adenocarcinoma); test: MTT reduction cytotoxicity assay; type: cell-based; conditions: for mean percentage of viable cells ± SD: 24 h
Protocol: as §1, §2

[5] = Observation of purified γ-iodo-δ-lactone isomers (decomposition, translactonization); type: physicochemical; conditions: purified trans,trans and cis,trans γ-iodo-δ-lactones; residue an equimolar mixture of trans and cis hydroxylactones
Protocol: Iodolactonization of 4a–c acids was carried out with I2/KI and NaHCO3 in a water/diethyl ether mixture. […] The yield of reactions was in the range of 69–85%. The reaction conditions prevented the direct synthesis of these compounds because the reaction was carried out in an alkaline solution, whereas hydroxylactonization requires an acidic environment. […] and predominantly formed in this reaction. The excess of trans-isomer is usually observed in the synthesis of γ -lactones. However, the reaction initially gave δ -iodo- γ -lactones, which, through a translactonization reaction, were transformed into the final products–hydroxylactones 12a and 13a. This was confirmed by observations of purified isomers trans,trans and cis,trans γ -iodo- δ -lactones 9b and 10b, and 9c and 10c. […] The carbocation was stabilized by the electron lone pairs of the oxygen atom present in the water molecule. The preparation of hydroxylactones from iodolactones has been described thus far only for biotransformation experiments. The synthesis described here allows obtaining these compounds without microorganisms.

gastric cancer AGS cells = tested on: gastric cancer AGS cells; parameters: method as in PMID 23792648; conditions: reference anticancer drug; cited from earlier work
[6] = MTT reduction cytotoxicity assay; type: cell-based, mouse; conditions: mouse, L929 cells (mouse fibroblasts), read-out: mean percentage of viable cells ± SD
Protocol: as §1, §2

[7] = MTT reduction cytotoxicity assay; type: cell-based, human; conditions: human, AGS cells (human gastric adenocarcinoma), 24 h, read-out: mean percentage of viable cells ± SD
Protocol: as §1, §2

In the case of `CC1CC(=O)OC(c2ccc(F)cc2)C1I` (mixture of isomers) [10c, Cis,trans-6-(4-fluorophenyl)-tetrahydro-5-iodo-4-methylpyran-2-one], the “mean percentage of viable cells ± SD” value ([1]; 0.1 μg/mL) is reported as 22 ± 0.05%, the “mean percentage of viable cells ± SD” value ([1]; 0.5 μg/mL) is reported as 18 ± 0.03% and the “mean percentage of viable cells ± SD” value ([1]; 5 μg/mL) is reported as 12 ± 0.07%. For the same compound, the “mean percentage of viable cells ± SD” value ([1]; 10 μg/mL) was 6 ± 0.09%, the “mean percentage of viable cells ± SD” value ([1]; 20 μg/mL) was 2 ± 0.15% and the “mean percentage of viable cells ± SD” value ([1]; 50 μg/mL) was 2 ± 0.05%. The “Number of CFU/mL (× 10^7)” value [2] was 6.30 × 10^7 CFU/mL, the “Number of CFU/mL (× 10^7)” value [3] was 2.87 × 10^7 CFU/mL and the “less CFU/mL (reduction of the number of CFU/mL)” value [3] was 70–78%. The IC50 [4] was 1700 nM, the “mean percentage of viable cells ± SD” value ([4]; 0.1 μg/mL) was 38 ± 0.06% and the “mean percentage of viable cells ± SD” value ([4]; 0.5 μg/mL) was 23 ± 0.15%. For the same compound, the “mean percentage of viable cells ± SD” value ([4]; 5 μg/mL) was 20 ± 0.02%, the “mean percentage of viable cells ± SD” value ([4]; 10 μg/mL) was 13 ± 0.03% and the “mean percentage of viable cells ± SD” value ([4]; 20 μg/mL) was 10 ± 0.07%. For the same compound, the “mean percentage of viable cells ± SD” value ([4]; 50 μg/mL) was 8 ± 0.03% and the “stability of purified isomer (in words)” value [5] was “rapid decomposition with release of iodine”.
For `COc1cccc2c1C(=O)c1c(O)c3c(c(O)c1C2=O)C[C@@](O)(C(=O)CO)C[C@@H]3O[C@H]1C[C@H](N)[C@H](O)[C@H](C)O1` [doxorubicin], the IC50 (gastric cancer AGS cells) is given as 25 nM.
For `CC1CC(=O)OC(c2ccc(F)cc2)C1I` (stereo not drawn) [9c, Trans,trans-6-(4-fluorophenyl)-tetrahydro-5-iodo-4-methylpyran-2-one], the “mean percentage of viable cells ± SD” value ([1]; 0.1 μg/mL) was 15 ± 0.03%, the “mean percentage of viable cells ± SD” value ([1]; 0.5 μg/mL) was 12 ± 0.08% and the “mean percentage of viable cells ± SD” value ([1]; 5 μg/mL) was 9 ± 0.06%. The “mean percentage of viable cells ± SD” value ([1]; 10 μg/mL) was 6 ± 0.03%, the “mean percentage of viable cells ± SD” value ([1]; 20 μg/mL) was 3 ± 0.09% and the “mean percentage of viable cells ± SD” value ([1]; 50 μg/mL) was 1 ± 0.05%. The “Number of CFU/mL (× 10^7)” value [2] was 9.76 × 10^7 CFU/mL, the “Number of CFU/mL (× 10^7)” value [3] was 2.43 × 10^7 CFU/mL and the “less CFU/mL (reduction of the number of CFU/mL)” value [3] was 70–78%. For the same compound, the IC50 [4] was 1400 nM, the “mean percentage of viable cells ± SD” value ([4]; 0.1 μg/mL) was 51 ± 0.10% and the “mean percentage of viable cells ± SD” value ([4]; 0.5 μg/mL) was 43 ± 0.15%. The “mean percentage of viable cells ± SD” value ([4]; 5 μg/mL) was 35 ± 0.10%, the “mean percentage of viable cells ± SD” value ([4]; 10 μg/mL) was 23 ± 0.02% and the “mean percentage of viable cells ± SD” value ([4]; 20 μg/mL) was 18 ± 0.06%. For the same compound, the “mean percentage of viable cells ± SD” value ([4]; 50 μg/mL) was 15 ± 0.03% and the “stability of purified isomer (in words)” value [5] was “rapid decomposition with release of iodine”.
Work on `CC1CC(=O)OC(c2ccccc2)C1I` (stereo not drawn) [9b, Trans,trans-tetrahydro-5-iodo-4-methyl-6-phenylpyran-2-one] yielded a viability at 24 h, 0.1 μg/mL ([6]; 0.1 μg/mL) of 23 ± 0.03%, a viability at 24 h, 0.5 μg/mL ([6]; 0.5 μg/mL) of 18 ± 0.03% and a viability at 24 h, 5 μg/mL ([6]; 5 μg/mL) of 13 ± 0.07%. It also gave a viability at 24 h, 10 μg/mL ([6]; 10 μg/mL) of 11 ± 0.06%, a viability at 24 h, 20 μg/mL ([6]; 20 μg/mL) of 4 ± 0.15% and a viability at 24 h, 50 μg/mL ([6]; 50 μg/mL) of 1 ± 0.12%. The melting point was 107 to 108 °C, the “Number of CFU/mL (× 10^7)” value [2] was 21.25 × 10^7 CFU/mL and the “Number of CFU/mL (× 10^7)” value [3] was 9.02 × 10^7 CFU/mL. The IC50 ([4]; Homo sapiens) was 1400 nM, the viability at 24 h, 0.1 μg/mL ([7]; 0.1 μg/mL) was 54 ± 0.15% and the viability at 24 h, 0.5 μg/mL ([7]; 0.5 μg/mL) was 52 ± 0.15%. It also gave a viability at 24 h, 5 μg/mL ([7]; 5 μg/mL) of 43 ± 0.12%, a viability at 24 h, 10 μg/mL ([7]; 10 μg/mL) of 26 ± 0.03% and a viability at 24 h, 20 μg/mL ([7]; 20 μg/mL) of 15 ± 0.06%. For the same compound, the viability at 24 h, 50 μg/mL ([7]; 50 μg/mL) was 8 ± 0.09% and the “stability of purified isomer (in words)” value [5] was “rapid decomposition with release of iodine”.
For `CC1CC(=O)OC(c2ccccc2)C1I` (mixture of isomers) [10b, Cis,trans-tetrahydro-5-iodo-4-methyl-6-phenylpyran-2-one], the “mean percentage of viable cells ± SD” value ([1]; 0.1 μg/mL) was 25 ± 0.08%, the “mean percentage of viable cells ± SD” value ([1]; 0.5 μg/mL) was 20 ± 0.03% and the “mean percentage of viable cells ± SD” value ([1]; 5 μg/mL) was 15 ± 0.08%. For the same compound, the “mean percentage of viable cells ± SD” value ([1]; 10 μg/mL) was 7 ± 0.15%, the “mean percentage of viable cells ± SD” value ([1]; 20 μg/mL) was 5 ± 0.06% and the “mean percentage of viable cells ± SD” value ([1]; 50 μg/mL) was 1 ± 0.02%. For the same compound, the “Number of CFU/mL (× 10^7)” value [2] was 5.92 × 10^7 CFU/mL, the “Number of CFU/mL (× 10^7)” value [3] was 7.65 × 10^7 CFU/mL and the IC50 [4] was 1800 nM. The “mean percentage of viable cells ± SD” value ([4]; 0.1 μg/mL) was 58 ± 0.07%, the “mean percentage of viable cells ± SD” value ([4]; 0.5 μg/mL) was 43 ± 0.02% and the “mean percentage of viable cells ± SD” value ([4]; 5 μg/mL) was 37 ± 0.03%. For the same compound, the “mean percentage of viable cells ± SD” value ([4]; 10 μg/mL) was 16 ± 0.09%, the “mean percentage of viable cells ± SD” value ([4]; 20 μg/mL) was 14 ± 0.08% and the “mean percentage of viable cells ± SD” value ([4]; 50 μg/mL) was 10 ± 0.06%. The “stability of purified isomer (in words)” value [5] was “rapid decomposition with release of iodine”.
